Targets include MAP4K4 (Homo sapiens, UniProt O95819); PLK3 (Homo sapiens, UniProt Q9H4B4); ROS1 (Homo sapiens, UniProt P08922).
What all share (assay): biochemical
Holding throughout (set-up): KINOMEscan scanMAX competition binding, DNA-tagged kinases, qPCR read-out, percent control at 300 nM

The next test deals with T1, AURKA (Homo sapiens, UniProt O14965).
T1 sequence (O14965 1-403): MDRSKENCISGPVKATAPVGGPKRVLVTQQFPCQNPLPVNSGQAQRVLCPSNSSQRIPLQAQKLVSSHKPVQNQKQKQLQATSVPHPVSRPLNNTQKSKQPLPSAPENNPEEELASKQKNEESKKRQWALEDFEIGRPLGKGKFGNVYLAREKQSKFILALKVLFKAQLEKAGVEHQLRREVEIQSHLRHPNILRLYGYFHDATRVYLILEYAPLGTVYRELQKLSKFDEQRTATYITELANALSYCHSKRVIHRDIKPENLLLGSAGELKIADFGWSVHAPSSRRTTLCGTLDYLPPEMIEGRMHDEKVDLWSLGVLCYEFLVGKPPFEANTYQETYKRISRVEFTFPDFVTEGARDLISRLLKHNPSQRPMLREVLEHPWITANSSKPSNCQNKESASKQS

The next test deals with T2, FLT3(R834Q) (Homo sapiens, UniProt P36888, R834Q).
T2 sequence (P36888 1-993 R834Q): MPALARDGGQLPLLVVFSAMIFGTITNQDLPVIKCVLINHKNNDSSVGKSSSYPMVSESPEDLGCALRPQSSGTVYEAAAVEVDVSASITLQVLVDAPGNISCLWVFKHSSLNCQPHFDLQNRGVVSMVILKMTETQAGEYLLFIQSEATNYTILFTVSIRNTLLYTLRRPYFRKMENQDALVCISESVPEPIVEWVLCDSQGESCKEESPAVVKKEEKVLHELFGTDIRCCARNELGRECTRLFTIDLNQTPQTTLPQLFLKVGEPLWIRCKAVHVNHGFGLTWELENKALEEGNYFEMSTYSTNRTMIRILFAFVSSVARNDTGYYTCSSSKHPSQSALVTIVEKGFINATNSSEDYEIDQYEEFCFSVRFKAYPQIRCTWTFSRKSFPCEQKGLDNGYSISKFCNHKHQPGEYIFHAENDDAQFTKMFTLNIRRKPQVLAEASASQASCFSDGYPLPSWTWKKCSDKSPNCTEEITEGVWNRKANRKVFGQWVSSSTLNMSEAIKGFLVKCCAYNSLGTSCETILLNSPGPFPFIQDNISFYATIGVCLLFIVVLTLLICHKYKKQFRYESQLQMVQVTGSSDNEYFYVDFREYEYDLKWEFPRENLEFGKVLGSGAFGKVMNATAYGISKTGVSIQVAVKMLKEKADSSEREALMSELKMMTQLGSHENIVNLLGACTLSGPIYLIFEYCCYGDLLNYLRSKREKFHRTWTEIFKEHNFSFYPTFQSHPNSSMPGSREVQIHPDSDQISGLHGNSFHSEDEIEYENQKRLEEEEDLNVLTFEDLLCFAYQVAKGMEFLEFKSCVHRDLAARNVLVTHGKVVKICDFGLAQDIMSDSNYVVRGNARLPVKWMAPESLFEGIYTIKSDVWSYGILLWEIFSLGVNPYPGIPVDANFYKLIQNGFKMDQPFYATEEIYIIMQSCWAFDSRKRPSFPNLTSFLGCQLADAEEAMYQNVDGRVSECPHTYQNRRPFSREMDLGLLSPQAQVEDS

The target of a further test is T3, MARK4 (Homo sapiens, UniProt Q96L34).
T3 sequence (Q96L34 1-752): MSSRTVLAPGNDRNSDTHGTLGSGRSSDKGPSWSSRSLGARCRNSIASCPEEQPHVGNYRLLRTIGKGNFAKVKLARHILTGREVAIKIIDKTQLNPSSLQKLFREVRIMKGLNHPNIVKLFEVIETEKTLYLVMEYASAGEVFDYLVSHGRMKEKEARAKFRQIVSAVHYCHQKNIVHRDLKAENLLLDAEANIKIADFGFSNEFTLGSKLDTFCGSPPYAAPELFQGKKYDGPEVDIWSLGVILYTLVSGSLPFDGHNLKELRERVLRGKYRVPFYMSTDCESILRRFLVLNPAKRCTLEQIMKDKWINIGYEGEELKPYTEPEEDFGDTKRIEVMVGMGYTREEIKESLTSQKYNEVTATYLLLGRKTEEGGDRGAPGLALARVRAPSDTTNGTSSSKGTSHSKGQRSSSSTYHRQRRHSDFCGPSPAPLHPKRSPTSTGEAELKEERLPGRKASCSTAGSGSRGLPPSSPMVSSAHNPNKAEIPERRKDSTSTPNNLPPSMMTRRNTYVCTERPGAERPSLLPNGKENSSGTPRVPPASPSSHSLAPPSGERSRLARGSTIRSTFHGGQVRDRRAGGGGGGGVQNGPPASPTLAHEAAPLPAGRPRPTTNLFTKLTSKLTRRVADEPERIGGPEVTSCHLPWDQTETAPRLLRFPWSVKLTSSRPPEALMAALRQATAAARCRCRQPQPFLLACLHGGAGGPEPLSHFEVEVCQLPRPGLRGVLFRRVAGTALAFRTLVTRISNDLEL

For test [1], the target named is T4, RSK1(Kin.Dom.1-N-terminal) (Homo sapiens, UniProt Q15418).
T4 construct: gene RPS6KA1; Kin.Dom.1-N-terminal

Where [2] appears, read: read-out: Percent control / Zanubrutinib.
Setting [3] is: read-out: Percent control / Tirabrutinib.
Setting [4] is: read-out: Percent control / Ibrutinib.
Setting [5] is: read-out: Percent control / Acalabrutinib.

SMILES strings stand for the structures. Where two headings read alike, the source gives them in different places.

Sequence of ROS1 (P08922 whole entry): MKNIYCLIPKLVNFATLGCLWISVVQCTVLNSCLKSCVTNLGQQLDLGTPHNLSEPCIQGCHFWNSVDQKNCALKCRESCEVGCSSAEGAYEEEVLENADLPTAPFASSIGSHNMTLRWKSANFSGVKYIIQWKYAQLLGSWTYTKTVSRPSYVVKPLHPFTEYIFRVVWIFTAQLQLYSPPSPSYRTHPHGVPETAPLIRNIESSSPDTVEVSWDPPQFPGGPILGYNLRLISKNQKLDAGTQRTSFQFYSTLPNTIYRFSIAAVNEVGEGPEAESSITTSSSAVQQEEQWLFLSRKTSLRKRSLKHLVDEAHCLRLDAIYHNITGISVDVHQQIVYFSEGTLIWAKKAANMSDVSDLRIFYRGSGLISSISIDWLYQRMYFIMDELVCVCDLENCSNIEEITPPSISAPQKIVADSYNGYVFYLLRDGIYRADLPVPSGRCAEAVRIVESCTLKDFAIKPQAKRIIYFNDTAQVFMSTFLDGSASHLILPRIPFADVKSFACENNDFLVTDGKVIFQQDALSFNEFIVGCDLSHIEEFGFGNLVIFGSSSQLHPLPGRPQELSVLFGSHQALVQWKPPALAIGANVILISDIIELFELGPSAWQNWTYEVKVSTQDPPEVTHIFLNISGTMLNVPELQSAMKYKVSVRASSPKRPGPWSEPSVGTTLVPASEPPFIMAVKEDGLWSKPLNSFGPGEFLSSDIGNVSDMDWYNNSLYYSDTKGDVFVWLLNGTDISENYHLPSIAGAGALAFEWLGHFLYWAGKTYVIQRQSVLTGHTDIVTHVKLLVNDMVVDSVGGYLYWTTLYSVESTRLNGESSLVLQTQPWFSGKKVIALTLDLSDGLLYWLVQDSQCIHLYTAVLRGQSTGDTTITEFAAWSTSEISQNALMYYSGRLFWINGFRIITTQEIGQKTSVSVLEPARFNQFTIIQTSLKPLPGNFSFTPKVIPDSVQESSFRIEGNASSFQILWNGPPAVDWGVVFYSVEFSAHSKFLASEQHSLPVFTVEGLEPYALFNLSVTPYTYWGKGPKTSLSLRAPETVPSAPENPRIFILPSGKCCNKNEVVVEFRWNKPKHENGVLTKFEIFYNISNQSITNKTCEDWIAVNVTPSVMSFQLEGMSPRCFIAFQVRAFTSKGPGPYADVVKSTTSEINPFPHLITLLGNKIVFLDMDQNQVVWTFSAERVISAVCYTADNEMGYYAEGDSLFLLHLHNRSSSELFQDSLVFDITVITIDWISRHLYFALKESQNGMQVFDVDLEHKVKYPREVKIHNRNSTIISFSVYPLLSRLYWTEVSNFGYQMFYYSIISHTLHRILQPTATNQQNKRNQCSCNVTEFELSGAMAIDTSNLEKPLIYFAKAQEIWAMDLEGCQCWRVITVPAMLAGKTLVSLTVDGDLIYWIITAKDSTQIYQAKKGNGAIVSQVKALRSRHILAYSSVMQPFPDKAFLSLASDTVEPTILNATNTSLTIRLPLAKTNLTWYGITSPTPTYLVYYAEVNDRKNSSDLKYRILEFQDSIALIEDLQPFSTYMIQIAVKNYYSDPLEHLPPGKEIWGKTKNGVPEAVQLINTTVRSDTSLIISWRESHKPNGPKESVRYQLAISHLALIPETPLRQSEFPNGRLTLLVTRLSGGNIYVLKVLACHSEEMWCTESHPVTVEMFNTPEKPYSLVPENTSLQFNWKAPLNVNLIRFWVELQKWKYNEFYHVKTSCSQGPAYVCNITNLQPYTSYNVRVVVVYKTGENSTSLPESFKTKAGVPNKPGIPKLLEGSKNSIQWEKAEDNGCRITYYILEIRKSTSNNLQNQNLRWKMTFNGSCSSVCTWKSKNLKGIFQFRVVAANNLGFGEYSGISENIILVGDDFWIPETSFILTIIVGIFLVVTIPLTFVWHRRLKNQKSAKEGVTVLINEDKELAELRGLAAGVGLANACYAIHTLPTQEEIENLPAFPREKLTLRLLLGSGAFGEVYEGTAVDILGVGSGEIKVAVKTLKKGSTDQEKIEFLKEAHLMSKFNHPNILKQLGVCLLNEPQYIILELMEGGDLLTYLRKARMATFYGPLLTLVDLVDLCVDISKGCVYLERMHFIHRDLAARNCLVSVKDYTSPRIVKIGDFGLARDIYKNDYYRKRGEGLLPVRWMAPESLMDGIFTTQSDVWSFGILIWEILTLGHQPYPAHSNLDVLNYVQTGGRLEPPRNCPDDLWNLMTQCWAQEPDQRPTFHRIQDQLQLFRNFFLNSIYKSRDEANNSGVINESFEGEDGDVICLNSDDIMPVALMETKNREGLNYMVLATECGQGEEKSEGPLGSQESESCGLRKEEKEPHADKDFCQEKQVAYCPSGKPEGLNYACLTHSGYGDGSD
Sequence of MAP4K4 (O95819 whole entry): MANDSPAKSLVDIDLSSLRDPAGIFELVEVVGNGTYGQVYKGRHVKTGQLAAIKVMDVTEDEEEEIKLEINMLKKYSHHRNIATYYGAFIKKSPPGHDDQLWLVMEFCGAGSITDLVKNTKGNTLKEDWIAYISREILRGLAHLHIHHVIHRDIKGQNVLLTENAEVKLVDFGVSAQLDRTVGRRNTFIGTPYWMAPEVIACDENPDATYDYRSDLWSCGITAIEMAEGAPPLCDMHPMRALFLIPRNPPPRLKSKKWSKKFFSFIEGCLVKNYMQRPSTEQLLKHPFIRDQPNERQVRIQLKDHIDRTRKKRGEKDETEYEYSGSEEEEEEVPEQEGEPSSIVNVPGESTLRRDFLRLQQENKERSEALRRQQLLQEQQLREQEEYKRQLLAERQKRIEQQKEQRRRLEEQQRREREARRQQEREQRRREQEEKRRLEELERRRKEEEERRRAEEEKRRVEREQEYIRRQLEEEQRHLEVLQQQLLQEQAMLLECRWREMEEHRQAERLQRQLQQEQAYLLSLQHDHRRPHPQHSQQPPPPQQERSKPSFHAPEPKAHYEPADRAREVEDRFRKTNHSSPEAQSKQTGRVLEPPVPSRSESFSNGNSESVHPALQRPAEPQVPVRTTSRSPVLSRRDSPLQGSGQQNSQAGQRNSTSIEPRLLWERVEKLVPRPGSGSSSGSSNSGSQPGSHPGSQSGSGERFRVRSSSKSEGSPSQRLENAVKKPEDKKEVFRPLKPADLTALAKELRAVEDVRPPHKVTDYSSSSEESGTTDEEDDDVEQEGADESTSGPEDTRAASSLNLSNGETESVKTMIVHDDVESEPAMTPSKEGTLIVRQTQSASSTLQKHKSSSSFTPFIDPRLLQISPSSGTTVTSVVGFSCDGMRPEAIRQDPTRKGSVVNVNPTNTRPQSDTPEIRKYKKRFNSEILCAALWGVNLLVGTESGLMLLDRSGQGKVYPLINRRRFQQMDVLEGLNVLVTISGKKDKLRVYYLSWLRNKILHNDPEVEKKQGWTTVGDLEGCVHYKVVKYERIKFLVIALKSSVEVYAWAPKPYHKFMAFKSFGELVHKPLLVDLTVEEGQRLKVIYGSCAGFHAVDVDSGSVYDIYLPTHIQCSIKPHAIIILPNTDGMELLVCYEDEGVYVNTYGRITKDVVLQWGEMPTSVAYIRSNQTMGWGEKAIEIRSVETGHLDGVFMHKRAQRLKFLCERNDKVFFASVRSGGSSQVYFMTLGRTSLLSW
T4 sequence (Q15418 whole entry): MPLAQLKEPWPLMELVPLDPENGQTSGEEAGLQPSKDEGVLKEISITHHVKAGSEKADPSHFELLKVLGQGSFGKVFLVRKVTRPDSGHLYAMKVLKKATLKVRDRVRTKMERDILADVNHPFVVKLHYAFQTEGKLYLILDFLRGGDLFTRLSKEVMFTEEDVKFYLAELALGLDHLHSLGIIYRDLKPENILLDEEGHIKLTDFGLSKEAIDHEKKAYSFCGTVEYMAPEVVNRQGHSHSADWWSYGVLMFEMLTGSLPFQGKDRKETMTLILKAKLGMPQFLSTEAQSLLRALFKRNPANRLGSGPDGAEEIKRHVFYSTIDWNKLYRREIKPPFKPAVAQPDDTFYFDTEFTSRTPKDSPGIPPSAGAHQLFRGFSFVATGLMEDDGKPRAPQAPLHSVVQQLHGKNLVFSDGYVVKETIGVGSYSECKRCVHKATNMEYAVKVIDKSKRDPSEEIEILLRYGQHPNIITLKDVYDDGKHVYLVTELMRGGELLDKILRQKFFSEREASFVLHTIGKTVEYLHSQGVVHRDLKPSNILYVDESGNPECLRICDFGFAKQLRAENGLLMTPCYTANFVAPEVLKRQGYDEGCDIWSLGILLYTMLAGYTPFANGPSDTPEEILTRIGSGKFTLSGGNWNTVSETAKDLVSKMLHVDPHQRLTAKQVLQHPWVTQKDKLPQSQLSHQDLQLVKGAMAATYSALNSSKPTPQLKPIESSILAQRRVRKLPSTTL
Sequence of PLK3 (Q9H4B4 whole entry): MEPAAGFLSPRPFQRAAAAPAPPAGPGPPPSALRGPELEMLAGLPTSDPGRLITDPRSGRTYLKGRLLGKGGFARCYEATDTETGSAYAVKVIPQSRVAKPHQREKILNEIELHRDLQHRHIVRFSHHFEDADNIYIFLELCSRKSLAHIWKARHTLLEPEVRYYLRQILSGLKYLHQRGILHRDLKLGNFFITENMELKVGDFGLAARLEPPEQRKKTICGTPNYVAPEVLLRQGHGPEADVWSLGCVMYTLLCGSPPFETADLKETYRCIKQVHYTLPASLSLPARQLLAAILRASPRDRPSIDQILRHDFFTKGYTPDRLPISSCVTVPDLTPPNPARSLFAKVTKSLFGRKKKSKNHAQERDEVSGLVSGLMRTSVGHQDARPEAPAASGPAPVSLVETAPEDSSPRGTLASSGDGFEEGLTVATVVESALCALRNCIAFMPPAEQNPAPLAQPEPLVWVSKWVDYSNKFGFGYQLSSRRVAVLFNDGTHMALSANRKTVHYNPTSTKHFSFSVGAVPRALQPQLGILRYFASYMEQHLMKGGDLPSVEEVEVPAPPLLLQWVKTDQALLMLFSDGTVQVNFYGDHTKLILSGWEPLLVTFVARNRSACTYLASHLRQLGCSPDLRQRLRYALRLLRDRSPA

Turning to `C=CC(=O)N1CCC([C@@H]2CCNc3c(C(N)=O)c(-c4ccc(Oc5ccccc5)cc4)nn32)CC1` [Zanubrutinib], the remaining binding at 0.3 µM is 92% on AURKA (setting [2]); 93% on FLT3(R834Q) (setting [2]); 100% on MAP4K4 (setting [2]); 83% at MARK4 (setting [2]); 94% at PLK3 (setting [2]); 100% at ROS1 (setting [2]). Besides, the remaining binding at 0.3 µM in test [1] (setting [2]) is 74%.

For the compound `CC#CC(=O)N1CC[C@@H](n2c(=O)n(-c3ccc(Oc4ccccc4)cc3)c3c(N)ncnc32)C1` [Tirabrutinib], the remaining binding at 0.3 µM at FLT3(R834Q) (setting [3]) worked out at 81%; at MAP4K4 (setting [3]), 98%; on MARK4 (setting [3]), 94%; at ROS1 (setting [3]) it was 94%.

For `C=CC(=O)N1CCC[C@@H](n2nc(-c3ccc(Oc4ccccc4)cc3)c3c(N)ncnc32)C1` [Ibrutinib], the remaining binding at 0.3 µM at AURKA (setting [4]) amounted to 94%; at FLT3(R834Q) (setting [4]), 55%; on MAP4K4 (setting [4]) it was 98%; on MARK4 (setting [4]), 96%; on PLK3 (setting [4]), 94%; in test [1] (setting [4]), 98%.

In the case of `CC#CC(=O)N1CCC[C@H]1c1nc(-c2ccc(C(=O)Nc3ccccn3)cc2)c2c(N)nccn12` [Acalabrutinib], the remaining binding at 0.3 µM at AURKA (setting [5]) was 96%; on MAP4K4 (setting [5]), 92%; on PLK3 (setting [5]), 91%; at ROS1 (setting [5]) it was 86%; in test [1] (setting [5]), 79%.

For the origin of these results see article PMC10004634 (PLOS ONE, 2023).
